According to publication PMC12700101 (2025):

Tests used:
[1] = test system: Dopamine DBS Cy3–BHQ-1 (Position 1/Adjacent) (DNA, aptamer) AAATACAACAAGAAAAAACTCTCGGGACGACGACCAGTTTGAAGGTTCGTTCGCAGGTGTGGAGTGACGTCGTCCC; experiment: fluorescence melting; conditions: 1x PBS, 2 mM MgCl2; derived from two Tm (51.7 ± 0.1, 50.9 ± 0.1) of aptamer–displacement duplex; 50 µM dopamine, pH 8.0
[2] = test system: Dopamine DBS BHQ-1/Cy3 (1:1) (DNA, aptamer) AAATACAACAAGAAAAAACTCTCGGGACGACGCCAGTTTGAAGGTTCGTTCGCAGGTGTGGAGTGACGTCGTCCC; experiment: fluorescence melting; conditions: 1x PBS, 2 mM MgCl2; pH 8.0; 50 µM dopamine; derived from two Tm (51.0, 50.6); displacement strand 1:1
[3] = test system: Dopamine MAB FAM–Dab (DNA, aptamer, dabcyl-5-methyl-dC at 41 (3' end)) ACGCCAGTTTGAAGGTTCGTTCGCAGGTGTGGAGTGACGTC; experiment: fluorescence melting; conditions: 1x PBS, 2 mM MgCl2; derived from two Tm (41.7 ± 0.2, 36.9 ± 0.1); 50 µM dopamine, pH 8.0
[4] = test system: Dopamine DBS FAM(+T)/BHQ-1 (int.) (DNA, aptamer, 6-FAM-modified dT (click, i6-FAMK) at 33) AAATACAACAAGAAAAAACTCTCGGGACGACGTCCAGTTTGAAGGTTCGTTCGCAGGTGTGGAGTGACGTCGTCCC; experiment: fluorescence melting; conditions: 1x PBS, 2 mM MgCl2; pH 8.0; 50 µM dopamine; derived from two Tm (49.1, 49.3); displacement strand 1:4
[5] = test system: Dopamine DBS FAM(+T)–BHQ-1 (Position 1) (DNA, aptamer, 6-FAM-dT (azide click) at 33) AAATACAACAAGAAAAAACTCTCGGGACGACGTACCAGTTTGAAGGTTCGTTCGCAGGTGTGGAGTGACGTCGTCCC; experiment: fluorescence strand-displacement titration; conditions: 1x PBS, 2 mM MgCl2; apparent; pH 8.0, 25 °C; displaced 42-nt 5'-BHQ-1 strand, 4 eq
[6] = test system: Dopamine DBS Cy3–IABkFQ (DNA, aptamer) AAATACAACAAGAAAAAACTCTCGGGACGACGACCAGTTTGAAGGTTCGTTCGCAGGTGTGGAGTGACGTCGTCCC; experiment: fluorescence strand-displacement titration; conditions: 1x PBS, 2 mM MgCl2; apparent; pH 8.0, 25 °C; displaced 42-nt 5'-IABkFQ strand, 4 eq
[7] = test system: Dopamine DBS FAM(+T)–IABkFQ (DNA, aptamer, 6-FAM-dT (azide click) at 33) AAATACAACAAGAAAAAACTCTCGGGACGACGTACCAGTTTGAAGGTTCGTTCGCAGGTGTGGAGTGACGTCGTCCC; experiment: fluorescence strand-displacement titration; conditions: 1x PBS, 2 mM MgCl2; apparent; pH 8.0, 25 °C; displaced 42-nt 5'-IABkFQ strand, 4 eq
[8] = test system: Dopamine DBS Cy3(+T)–IABkFQ (DNA, aptamer) AAATACAACAAGAAAAAACTCTCGGGACGACGTACCAGTTTGAAGGTTCGTTCGCAGGTGTGGAGTGACGTCGTCCC; experiment: fluorescence strand-displacement titration; conditions: 1x PBS, 2 mM MgCl2; apparent; pH 8.0, 25 °C; displaced 42-nt 5'-IABkFQ strand, 4 eq
[9] = test system: Dopamine DBS Cy3(+T)–BHQ-1 Terminal (DNA, aptamer) AAATACAACAAGAAAAAACTCTCGGGACGACGTACCAGTTTGAAGGTTCGTTCGCAGGTGTGGAGTGACGTCGTCCC; experiment: fluorescence strand-displacement titration; conditions: 1x PBS, 2 mM MgCl2; apparent; pH 8.0, 25 °C; displaced 43-nt strand, 5'-BHQ-1 plus T, 4 eq
[10] = test system: Dopamine DBS Cy3(+T)–BHQ-1 Internal (DNA, aptamer) AAATACAACAAGAAAAAACTCTCGGGACGACGTACCAGTTTGAAGGTTCGTTCGCAGGTGTGGAGTGACGTCGTCCC; experiment: fluorescence strand-displacement titration; conditions: 1x PBS, 2 mM MgCl2; apparent; pH 8.0, 25 °C; displaced 42-nt strand, internal BHQ-1, 4 eq
[11] = test system: Dopamine DBS Cy3–BHQ-1 (Position 2) (DNA, aptamer) AAATACAACAAGAAAAAACTCTCGGGACGACGACCAGTTTGAAGGTTCGTTCGCAGGTGTGGAGTGACGTCGTCCC; experiment: fluorescence strand-displacement titration; conditions: 1x PBS, 2 mM MgCl2; apparent; pH 8.0, 25 °C; displaced 42-nt strand, internal BHQ-1 (position 2), 4 eq
[12] = test system: Dopamine DBS Cy3–BHQ-1 (Position 3) (DNA, aptamer) AAATACAACAAGAAAAAACTCTCGGGACGACGACCAGTTTGAAGGTTCGTTCGCAGGTGTGGAGTGACGTCGTCCC; experiment: fluorescence strand-displacement titration; conditions: 1x PBS, 2 mM MgCl2; apparent; pH 8.0, 25 °C; displaced 42-nt strand, internal BHQ-1 (position 3), 4 eq
[13] = test system: Dopamine DBS Cy3/Cy5 – No (position 3) (DNA, aptamer) AAATACAACAAGAAAAAACTCTCGGGACGACGACCAGTTTGAAGGTTCGTTCGCAGGTGTGGAGTGACGTCGTCCC; experiment: fluorescence strand-displacement titration; conditions: 1x PBS, 2 mM MgCl2; apparent; pH 8.0, 25 °C; displaced 42-nt 3'-biotin strand without quencher; 565 nm readout
[14] = test system: Dopamine MAB FAM–BHQ-1 (DNA, aptamer) ACGCCAGTTTGAAGGTTCGTTCGCAGGTGTGGAGTGACGT; experiment: fluorescence quenching titration (molecular aptamer beacon); conditions: 1x PBS, 2 mM MgCl2; apparent; pH 8.0, 25 °C
[15] = test system: Dopamine MAB Cy3–BHQ-2 (DNA, aptamer) ACGCCAGTTTGAAGGTTCGTTCGCAGGTGTGGAGTGACGT; experiment: as above; conditions: 1x PBS, 2 mM MgCl2; apparent; pH 8.0, 25 °C

Question: How did the Tm [1] turn out when NCCc1ccc(O)c(O)c1 was run?
Answer: -0.8 °C

Question: What about the Tm [2] of the same molecule?
Answer: -0.4 °C

Question: And the Tm [3]?
Answer: -4.8 °C

Question: What about the Tm [4] of the same molecule?
Answer: 0.2 °C

Question: And the Kd [5]?
Answer: 6.1 ± 0.7 µM

Question: What about the Kd [6] of the same molecule?
Answer: 85.0 ± 15.6 µM

Question: And the Kd [7]?
Answer: 19.6 ± 0.9 µM

Question: What about the Kd [8] of the same molecule?
Answer: 41.8 ± 5.0 µM

Question: And the Kd [9]?
Answer: 40.1 ± 5.0 µM

Question: What about the Kd [10] of the same molecule?
Answer: 17.3 ± 1.3 µM

Question: What about the Kd [11] of the same molecule?
Answer: 2.2 ± 0.7 µM

Question: And the Kd [12]?
Answer: 2.3 ± 0.3 µM

Question: And the Kd [13]?
Answer: 9.9 ± 3.6 µM

Question: And the Kd [14]?
Answer: 3.0 ± 0.1 µM

Question: And the Kd [15]?
Answer: 12.4 ± 2.0 µM
